Key:
[1] = target: T1, human dopamine D2L receptors (long isoform) (Homo sapiens, UniProt P14416); test: Dopamine D2L receptor binding, [125I] iodospiperone displacement; settings: ratio of Ki at human D2L to Ki at human D3, HEK-293 membranes
T1 construct: expressed in transfected cells; membranes)
Description: (§1) Each as-say mixture was run in triplicate. • The incubation buffer contained 50 mM tris, 120 mM NaCl, 5 mM KCl, 2 mM CaCl2, 2 mM MgCl2 and 0.1% bovine serum albumin, 10 μM quinolone and 0.1% ascorbic acid (prepared fresh daily). […] Each assay mixture was run in triplicate. • The incubation buffer contained 50 mM tris, 120 mM NaCl, 5 mM KCl, 2 mM CaCl2, 2 mM MgCl2 and 0.1% bovine serum albumin. The buffer was adjusted to pH 7.4 with HCl. c) Measurement and Analysis: • After having been incubated at 25° C. for 60 minutes, the assay mixtures were filtered through a Whatman GF/B glass fiber filter under vacuum using a cell collecting device. The filters were transferred to scintillation viols using a filter transfer system. After 4 ml of Ultima Gold® (Packard) have been added, the samples were shaken for one hour and the radioactivity was then counted in a Beta-Counter (Packard, Tricarb 2000 or 2200CA).

[2] = target: T2, human dopamine D3 receptors (Homo sapiens, UniProt P35462); test: Dopamine D3 receptor binding, [125I]-iodosulpride displacement; settings: membranes of HEK-293 cells, 0.1 nM [125I]-iodosulpride
T2 construct: expressed in transfected cells; membranes)
T2 sequence (P35462 whole entry): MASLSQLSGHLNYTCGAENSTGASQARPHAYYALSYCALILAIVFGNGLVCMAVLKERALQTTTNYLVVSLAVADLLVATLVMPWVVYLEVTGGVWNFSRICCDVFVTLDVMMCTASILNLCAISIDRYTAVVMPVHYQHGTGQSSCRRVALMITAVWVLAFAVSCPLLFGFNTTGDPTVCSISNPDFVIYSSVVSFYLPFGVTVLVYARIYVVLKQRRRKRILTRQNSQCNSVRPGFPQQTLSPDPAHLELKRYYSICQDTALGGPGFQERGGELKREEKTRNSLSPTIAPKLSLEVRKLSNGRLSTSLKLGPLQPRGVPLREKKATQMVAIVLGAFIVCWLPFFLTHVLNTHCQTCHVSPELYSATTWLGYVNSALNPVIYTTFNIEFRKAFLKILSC
Description: as §1

T1 sequence (P14416 whole entry, canonical isoform): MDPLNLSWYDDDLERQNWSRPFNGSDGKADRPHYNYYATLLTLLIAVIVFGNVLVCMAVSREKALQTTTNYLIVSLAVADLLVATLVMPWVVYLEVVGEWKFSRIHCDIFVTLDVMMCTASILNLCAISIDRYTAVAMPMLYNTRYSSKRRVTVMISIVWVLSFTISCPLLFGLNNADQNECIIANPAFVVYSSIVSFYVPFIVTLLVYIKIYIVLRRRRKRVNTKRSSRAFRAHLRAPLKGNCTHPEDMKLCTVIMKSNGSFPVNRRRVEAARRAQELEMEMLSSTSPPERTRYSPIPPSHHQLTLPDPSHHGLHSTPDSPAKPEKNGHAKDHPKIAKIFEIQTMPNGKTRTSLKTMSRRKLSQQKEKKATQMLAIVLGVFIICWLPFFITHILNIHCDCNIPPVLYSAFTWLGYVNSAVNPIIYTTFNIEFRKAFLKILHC

| Compound | Selectivity vs. D2L, Ki(D2L)/Ki(D3) [1] | Ki [2] [nM] |
| --- | --- | --- |
| CC(C)(C)c1nc(N2CCN(CCCCn3ncc(=O)[nH]c3=O)CC2)cc(C(F)(F)F)n1.Cl [Example 1, 2-{4-[4-(2-tert-Butyl-6-trifluoromethyl-pyrimidin-4-yl)-piperazin-1-yl]butyl}-2H-[1,2,4]triazine-3,5-dione hydrochloride] | ++ (++>20) | < 10 |
| CC(C)(C)c1nc(C(F)F)cc(N2CCN(CCCCn3ncc(=O)[nH]c3=O)CC2)n1.Cl [Example 2, 2-{4-[4-(2-tert-Butyl-6-difluoromethyl-pyrimidin-4-yl)-piperazin-1-yl]butyl}-2H-[1,2,4]triazine-3,5-dione hydrochloride] | ++ (++>20) | < 10 |
| CCCc1cc(N2CCN(CCCCn3ncc(=O)[nH]c3=O)CC2)nc(C(C)(C)C)n1 [Example 3, 2-{4-[4-(2-tert-Butyl-6-propyl-pyrimidin-4-yl)-piperazin-1-yl]butyl}-2H-[1,2,4]triazine-3,5-dione] | +++ (+++>50) | < 10 |
| CC(C)(C)c1cc(N2CCN(CCCCn3ncc(=O)[nH]c3=O)CC2)nc(C(C)(C)C)n1.O=C(O)C(F)(F)F [Example 4, 2-{4-[4-(2,6-Di-tert-butyl-pyrimidin-4-yl)-piperazin-1-yl]butyl}-2H-[1,2,4]triazine-3,5-dione trifluoroacetate] | ++ (++>20) | < 10 |
| CC(C)(C)c1nc(C2CCC2)cc(N2CCN(CCCCn3ncc(=O)[nH]c3=O)CC2)n1 [Example 5, 2-{4-[4-(2-tert-Butyl-6-cyclobutyl-pyrimidin-4-yl)-piperazin-1-yl]butyl}-2H-[1,2,4]triazine-3,5-dione] | ++ (++>20) | < 10 |
| Cc1nn(CCCCN2CCN(c3cc(C(F)(F)F)nc(C(C)(C)C)n3)CC2)c(=O)[nH]c1=O.Cl [Example 6, 2-{4-[4-(2-tert-Butyl-6-trifluoromethyl-pyrimidin-4-yl)-piperazin-1-yl]butyl}-6-methyl-2H-[1,2,4]triazine-3,5-dione hydrochloride] | ++ (++>20) | < 10 |
| CCCc1cc(N2CCN(CCCCn3nc(C)c(=O)[nH]c3=O)CC2)nc(C(C)(C)C)n1.Cl [Example 7, 2-{4-[4-(2-tert-Butyl-6-propyl-pyrimidin-4-yl)-piperazin-1-yl]butyl}-6-methyl-2H-[1,2,4]triazine-3,5-dione hydrochloride] | ++ (++>20) | < 10 |

— patent publication US8492540B2, “1,2,4,-triazin-3,5-dione compounds suitable for treating disorders that respond to modulation of the dopamine D3 receptor” (Abbott GmbH & Co. KG, priority 2007, dated 2013)
